{
  "source": "paper PMC10018608",
  "about": "(Signal Transduction and Targeted Therapy, 2023)",
  "key": {"[1]": {"test_system": "SARS-CoV-2 Omicron BA.1 (B.1.1.529.1)", "assay": "In vitro antiviral screening, viral genome copies by RT-qPCR in VeroE6-TMPRSS2", "assay_type": "cell-based", "conditions": "Omicron BA.1, VeroE6-TMPRSS2"}, "SARS-CoV-2 (B.1.351)": {"test_system": "SARS-CoV-2 (B.1.351)", "assay": "Plaque reduction assay in VeroE6-TMPRSS2", "assay_type": "cell-based", "conditions": "Severe acute respiratory syndrome coronavirus 2"}, "MERS-CoV": {"test_system": "MERS-CoV", "assay": "microbe, parasite or virus in culture", "assay_type": "cell-based", "conditions": "Middle East respiratory syndrome-related coronavirus, VeroE6/TMPRSS2, read-out: EC50 (plaque reduction)"}, "Human Cathepsin L": {"biological_target": "T1, Human Cathepsin L (Homo sapiens, UniProt P07711)", "T1 construct": "purchased Biovision, USA", "T1 sequence (P07711 114-333)": "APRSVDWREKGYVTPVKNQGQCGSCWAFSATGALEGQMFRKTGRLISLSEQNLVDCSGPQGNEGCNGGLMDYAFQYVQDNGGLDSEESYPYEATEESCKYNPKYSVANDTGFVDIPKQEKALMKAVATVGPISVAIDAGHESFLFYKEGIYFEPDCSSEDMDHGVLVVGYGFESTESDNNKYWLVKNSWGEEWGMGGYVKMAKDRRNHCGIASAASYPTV", "assay": "Mammalian proteases activity assay", "assay_type": "biochemical", "procedure": "(§1) The mammalian proteases activity assay was analyzed using the assay kit (Biovision, USA) in triplicate by following manufacturer’s manual."}, "Neutrophil Elastase": {"biological_target": "T2, Neutrophil Elastase (Homo sapiens, UniProt P08246)", "T2 construct": "purchased Biovision, USA", "T2 sequence (P08246 30-267)": "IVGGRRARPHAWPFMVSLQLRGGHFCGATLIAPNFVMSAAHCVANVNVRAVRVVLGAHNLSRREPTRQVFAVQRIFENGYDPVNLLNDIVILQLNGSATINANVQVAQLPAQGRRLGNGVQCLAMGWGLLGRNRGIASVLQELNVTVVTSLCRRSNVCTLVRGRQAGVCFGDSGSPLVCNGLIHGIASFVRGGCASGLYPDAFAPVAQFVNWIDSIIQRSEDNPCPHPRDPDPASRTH", "assay": "Mammalian proteases activity assay", "assay_type": "biochemical", "procedure": "as §1"}, "various human proteases": {"test_system": "various human proteases", "assay": "Mammalian proteases activity assay (text summary of the panel)", "assay_type": "biochemical", "conditions": "tested various human proteases", "procedure": "as §1"}, "[2]": {"test_system": "SARS-CoV-2 Omicron BA.2 sublineage", "assay_type": "in vivo, K18-hACE2 transgenic mice"}, "[3]": {"conditions": "SD rats"}, "[4]": {"conditions": "Beagle Dog, i.v. (1 mg/kg)"}, "[5]": {"assay": "not given", "remark": "listed apart in the source"}, "in vivo [6]": {"assay": "in vivo", "conditions": "male, beagle, dog"}, "in vivo [7]": {"assay": "in vivo", "conditions": "male, ICR, mouse"}, "hERG channel": {"biological_target": "hERG channel (Homo sapiens, UniProt Q12809)", "sequence (Q12809 whole entry)": "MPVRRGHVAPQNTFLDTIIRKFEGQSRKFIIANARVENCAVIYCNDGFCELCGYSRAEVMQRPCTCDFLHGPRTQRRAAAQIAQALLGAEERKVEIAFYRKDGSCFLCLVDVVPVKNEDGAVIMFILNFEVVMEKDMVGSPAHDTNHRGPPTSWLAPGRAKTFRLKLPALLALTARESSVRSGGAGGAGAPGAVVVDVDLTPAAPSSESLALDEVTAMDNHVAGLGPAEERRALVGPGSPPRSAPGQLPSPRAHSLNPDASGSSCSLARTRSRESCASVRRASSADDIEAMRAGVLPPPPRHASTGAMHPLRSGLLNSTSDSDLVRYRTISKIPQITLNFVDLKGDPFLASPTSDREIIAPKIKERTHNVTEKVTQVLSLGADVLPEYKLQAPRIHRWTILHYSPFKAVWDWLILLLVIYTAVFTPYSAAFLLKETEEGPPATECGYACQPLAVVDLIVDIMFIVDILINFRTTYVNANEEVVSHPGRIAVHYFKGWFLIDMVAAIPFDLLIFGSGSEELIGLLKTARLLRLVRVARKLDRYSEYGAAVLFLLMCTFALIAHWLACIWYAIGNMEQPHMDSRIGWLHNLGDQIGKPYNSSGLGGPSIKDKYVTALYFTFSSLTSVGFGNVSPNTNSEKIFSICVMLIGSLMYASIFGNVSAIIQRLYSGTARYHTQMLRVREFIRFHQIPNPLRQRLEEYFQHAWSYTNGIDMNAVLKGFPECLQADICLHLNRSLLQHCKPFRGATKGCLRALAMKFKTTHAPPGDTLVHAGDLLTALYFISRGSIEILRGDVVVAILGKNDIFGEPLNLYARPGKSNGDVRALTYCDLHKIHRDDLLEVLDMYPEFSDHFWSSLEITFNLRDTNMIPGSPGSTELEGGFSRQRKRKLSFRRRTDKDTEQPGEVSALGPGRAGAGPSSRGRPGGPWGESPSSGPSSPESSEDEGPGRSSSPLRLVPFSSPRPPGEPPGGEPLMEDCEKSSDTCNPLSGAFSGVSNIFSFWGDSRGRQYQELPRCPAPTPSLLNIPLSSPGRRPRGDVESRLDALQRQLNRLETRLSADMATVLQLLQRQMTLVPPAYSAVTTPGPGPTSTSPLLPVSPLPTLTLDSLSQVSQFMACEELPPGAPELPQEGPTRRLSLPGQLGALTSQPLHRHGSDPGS", "assay": "cell-based"}},
  "note": "Like-named read-outs stand apart in the source and are kept apart here.",
  "data": [
    {"smiles": "COC[C@@H](NC(=O)C1CCCC(F)(F)C1)C(=O)N[C@H](Cc1ccccc1)C(=O)C(=O)NCc1nccs1", "note": "(stereo partly drawn) [SY110, N-((R)-1-(((R)-3,4-dioxo-1-phenyl-4-((thiazol-2-ylmethyl)amino)butan-2-yl)amino)-3-methoxy-1-oxopropan-2-yl)-3,3-difluorocyclohexane-1-carboxamide]", "values": [
      {"measurement": "antiviral activity among the six compounds tested", "setting": "[1]", "value": "most potent antiviral activity"},
      {"measurement": "EC50", "setting": "SARS-CoV-2 (B.1.351)", "value": 2.84, "unit": "µM"},
      {"measurement": "EC50", "setting": "MERS-CoV", "value": 6.27, "unit": "µM"},
      {"measurement": "IC50", "setting": "Human Cathepsin L", "value": "> 100", "unit": "µM"},
      {"measurement": "IC50", "setting": "Neutrophil Elastase", "value": "> 100", "unit": "µM"},
      {"measurement": "IC50", "setting": "various human proteases", "value": "> 100", "unit": "µM"},
      {"measurement": "lung pathology, H&E staining", "setting": "[2]; mouse, in vivo", "value": "only scattered inflammatory cell infiltrates can be occasionally found in the alveolar interstitium"},
      {"measurement": "viral N protein expression in the lung tissue", "setting": "[2]; mouse, in vivo", "value": "substantially reduced the viral N protein expression"},
      {"measurement": "production of the infectious virus particles in the lung", "setting": "[2]; plaque assays, therapeutic treatment", "value": "effectively suppressed"},
      {"measurement": "MTRlast", "setting": "[3]; i.v. (1 mg/kg)", "value": "2.34 ± 0.22", "unit": "h"},
      {"measurement": "Vzobs", "setting": "[3]; i.v. (1 mg/kg)", "value": "3.03 ± 0.71", "unit": "L/kg"},
      {"measurement": "MTRlast", "setting": "[3]; p.o. (10 mg/kg)", "value": "6.60 ± 0.89", "unit": "h"},
      {"measurement": "MTRlast", "setting": "[4]", "value": "0.47 ± 0.05", "unit": "h"},
      {"measurement": "Results, acute toxicity study", "setting": "mice, p.o., 1000 mg/kg, single dose", "value": "No mice died"},
      {"measurement": "maximal tolerated single dose", "setting": "text says rats", "value": "at least 1.0 g/kg"},
      {"measurement": "no observed adverse effect level", "setting": "[5]; 14 days repeated dose toxicity study, text says rats", "value": 600, "unit": "mg/kg"},
      {"measurement": "Results, repeated dose two-week toxicity study", "setting": "[5]; mice, p.o., 600 mg/kg, twice daily, 14 days", "value": "without death, significant body weight change, or pathological changes in the heart, liver, lung, kidney, or spleen"},
      {"measurement": "AUC(0-inf)", "setting": "in vivo [6]; iv, 1 mg/kg", "value": "628 ± 113", "unit": "ng·h/mL"},
      {"measurement": "AUC(0-t)", "setting": "in vivo [6]; iv, 1 mg/kg", "value": "624 ± 113", "unit": "ng·h/mL"},
      {"measurement": "Cmax", "setting": "in vivo [6]; iv, 1 mg/kg", "value": "1270 ± 333", "unit": "ng/mL"},
      {"measurement": "Tmax", "setting": "in vivo [6]; iv, 1 mg/kg", "value": 4.98, "unit": "min"},
      {"measurement": "clearance", "setting": "in vivo [6]; iv, 1 mg/kg", "value": 27.1, "unit": "mL/min/kg"},
      {"measurement": "half-life", "setting": "in vivo [6]; iv, 1 mg/kg", "value": "36.6 ± 3", "unit": "min"},
      {"measurement": "AUC(0-inf)", "setting": "in vivo [6]; po, 10 mg/kg", "value": "8290 ± 378", "unit": "ng·h/mL"},
      {"measurement": "AUC(0-t)", "setting": "in vivo [6]; po, 10 mg/kg", "value": "8240 ± 370", "unit": "ng·h/mL"},
      {"measurement": "Cmax", "setting": "in vivo [6]; po, 10 mg/kg", "value": "3060 ± 136", "unit": "ng/mL"},
      {"measurement": "Tmax", "setting": "in vivo [6]; po, 10 mg/kg", "value": 60, "unit": "min"},
      {"measurement": "bioavailability", "setting": "in vivo [6]; po, 10 mg/kg", "value": 132, "unit": "%"},
      {"measurement": "half-life", "setting": "in vivo [6]; po, 10 mg/kg", "value": "335 ± 74.4", "unit": "min"},
      {"measurement": "AUC(0-inf)", "setting": "in vivo [7]; iv, 1 mg/kg", "value": "87.1 ± 7.81", "unit": "ng·h/mL"},
      {"measurement": "AUC(0-t)", "setting": "in vivo [7]; iv, 1 mg/kg", "value": "85.9 ± 7.6", "unit": "ng·h/mL"},
      {"measurement": "Cmax", "setting": "in vivo [7]; iv, 1 mg/kg", "value": "285 ± 16.4", "unit": "ng/mL"},
      {"measurement": "Tmax", "setting": "in vivo [7]; iv, 1 mg/kg", "value": 4.8, "unit": "min"},
      {"measurement": "clearance", "setting": "in vivo [7]; iv, 1 mg/kg", "value": "192 ± 16.4", "unit": "mL/min/kg"},
      {"measurement": "half-life", "setting": "in vivo [7]; iv, 1 mg/kg", "value": "16.2 ± 10.2", "unit": "min"},
      {"measurement": "AUC(0-inf)", "setting": "in vivo [7]; po, 150 mg/kg", "value": "15700 ± 4420", "unit": "ng·h/mL"},
      {"measurement": "AUC(0-t)", "setting": "in vivo [7]; po, 150 mg/kg", "value": "15100 ± 5140", "unit": "ng·h/mL"},
      {"measurement": "Cmax", "setting": "in vivo [7]; po, 150 mg/kg", "value": "4080 ± 636", "unit": "ng/mL"},
      {"measurement": "Tmax", "setting": "in vivo [7]; po, 150 mg/kg", "value": "19.8 ± 8.4", "unit": "min"},
      {"measurement": "half-life", "setting": "in vivo [7]; po, 150 mg/kg", "value": "195 ± 61.8", "unit": "min"},
      {"measurement": "IC50", "setting": "hERG channel", "value": "> 30", "unit": "µM"}
    ]}
  ]
}
